Patent US20250361226A1, “PHARMACEUTICALLY ACCEPTABLE SALT OF BENZO[C]CHROMAN COMPOUND AND P[…] AND USE OF PHARMACEUTICALLY ACCEPTABLE SALT” (REISTONE BIOPHARMA COMPANY LIMITED, priority 2022, published 2025)

Experiments:
[1] = Stability test (influence factor tests: light, temperature, humidity) by HPLC and XRPD; format: physicochemical
Experimental: (§1) Test conditions for the instruments used in experiments of the present disclosure: • 1. X-ray Powder Diffraction, XRPD • Instrument type: Malver Panalytical Aeris X-ray powder diffractometer • Ray: monochromatic Cu—Kα ray (λ=1.54188) • Scanning mode: θ/2θ, Scanning range (2θ range): 3.5-50° • Voltage: 40 kV, Electric current: 15 mA • 2. Differential Scanning calorimetry, DSC • Instrument type: TA DSC250 • Purge gas: Nitrogen; Nitrogen purge rate: 50 mL/min • Heating rate: 10° C./min • Temperature range: 25° C.-250° C. • 3. Thermogravimetric Analysis, TGA • Instrument type: TA TGA550 • Purge gas: Nitrogen; Nitrogen purge rate: 20 ml/min • Scanning rate: 10° C./min • Temperature range: 30° C.-350° C. • 4. Dynamic vapor sorption (DVS) • Using SMS Intrinsic PLUS, the detection is performed at 25° C., with humidity change of 50%-0%-90% with a step size of 10%, in which the criteria for judging is that the mass change dM/dT for each gradient is less than 0.002%, TMAX is 360 min, and two cycles are performed. • 5. High performance liquid chromatography (HPLC) described in the stability test of the crystal form A of the present disclosure is determined on Agilent 1260 Infinity II.
(§2) In the content detection method by the high performance liquid chromatography described in the present disclosure, HPLC conditions are as follows: chromatographic column, Agilent Eclipse Plus C18 4.6 mm*150 mm, 3.5 μm; mobile phase, A-10 mmol/L solution of sodium dihydrogen phosphate (pH 8.0), and B-ACN; flow rate, 1.0 ml/min; wavelength, 210 nm.
as §2, with “related substances” for “content”, “ammonium acetate,” for “sodium dihydrogen phosphate (pH 8.0),”
It is determined whether light, temperature and humidity have an influence on the stability of crystal form A of hydrochloride salt of the compound of formula I. The crystal form A of hydrochloride salt was placed in a stabilizing chamber in the dark and subjected to influence factor tests using a series of temperature and humidity combinations. After being placed for different days under light and various temperature and humidity conditions, the samples were taken out and compared with the initial crystal form A of hydrochloride salt. […] The samples taken out on the last day under light and various temperature and humidity conditions were subjected to XRPD detection, showing that the crystal form A of hydrochloride salt had no change and had good stability.

[2] = Dynamic vapor sorption (DVS) with XRPD before and after; format: physicochemical
Experimental: as §1
During the humidity change of 0%-90% RH, the desorption process of the sample coincides with the adsorption process thereof.

Work on `Cl.N#Cc1ccc2c(c1)COc1cc(C[C@@H](C#N)NC(=O)[C@@H]3CNCCCO3)c(F)cc1-2` [Crystal form A of hydrochloride salt] yielded a Content % ([1]; 25° C. 92% - one week) of 99.37%, an Isomers % ([1]; 25° C. 92% - one week) of 0.63% and a Content % ([1]; 25° C. 92% - two weeks) of 99.31%. It also gave an Isomers % ([1]; 25° C. 92% - two weeks) of 0.70%, a Content % ([1]; 40° C. 75% - one week) of 99.31% and an Isomers % ([1]; 40° C. 75% - one week) of 0.69%. It also gave a Content % ([1]; 40° C. 75% - two weeks) of 99.32%, an Isomers % ([1]; 40° C. 75% - two weeks) of 0.68% and a Content % ([1]; 60° C. - one week) of 99.31%. For the same compound, the Isomers % ([1]; 60° C. - one week) was 0.70%, the Content % ([1]; 60° C. - two weeks) was 99.33% and the Isomers % ([1]; 60° C. - two weeks) was 0.67%. For the same compound, the “increase in isomers of the compound of formula I versus initial (HPLC)” value ([1]; different days under light and various temperature and humidity conditions) was “none of them had a significant increase”, the Content % ([1]; initial) was 99.54% and the Isomers % ([1]; initial) was 0.67%. The Content % ([1]; light, 0.5 ICH) was 99.44%, the Isomers % ([1]; light, 0.5 ICH) was 0.67% and the Content % ([1]; light, 1 ICH) was 99.32%. For the same compound, the Isomers % ([1]; light, 1 ICH) was 0.67%, the “crystal form by XRPD after influence factor tests” value ([1]; samples of the last day under light and various temperature and humidity conditions) was “had no change” and the “weight gain by hygroscopicity” value ([2]; DVS, 25° C., 80% RH) was “approximately 1.1%”. For the same compound, the “crystal form before and after DVS detection (XRPD)” value ([2]; humidity change 0%-90% RH) was “the crystal form did not change”.
